{"source": "patent US20100305120A1", "about": "“COMPOUNDS FOR TREATING MUSCULAR DYSTROPHY” (BIOMARIN IGA LIMITED, priority 2008, published 2010)", "test_system": "Utrophin A promoter linked to a luciferase reporter gene", "experiment": "Luciferase reporter assay (murine H2K cells), H2K/mdx/Utro A reporter cell line", "type": "cell-based", "conditions": "48 h, mdx mouse H2K Utrophin A reporter cells, read-out: Activity (luciferase level relative to control); for activity at 10 µM: test compound concentration 10 μM", "procedure": "Luciferase Reporter Assay (Murine H2K Cells)\nThe cell line used for the screen is an immortalized mdx mouse H2K cell line that has been stably transfected with a plasmid containing ≈5 kb fragment of the Utrophin A promoter including the first untranslated exon linked to a luciferase reporter gene.\nUnder conditions of low temperature and interferon containing media, the cells remain as myoblasts. These are plated into 96 well plates and cultured in the presence of compound for three days. The level of luciferase is then determined by cell lysis and reading of the light output from the expressed luciferase gene utilising a plate luminometer.\nLuciferase Assay for 96 Well Plates\nThe H2K/mdx/Utro A reporter cell line cells were plated out into 96 well plates (Falcon 353296, white opaque) at a density of approximately 5000 cells/well in 190 μl normal growth medium. The plates were then incubated at 33° C. in the presence of 10% CO2 for 24 hrs.\nCompounds were dosed by adding 10 μl of diluted compound to each well giving a final concentration of 10 μM (where a different final concentration was required, the amount of compound solution added was amended accordingly). The plates were then incubated for a further 48 hrs. Cells were then lysed in situ following the manufacture's protocols (Promega Steady-Glo Luciferase Assay System(E2520). Then counted for 10 seconds using a plate luminometer (Victor1420).\nCompounds for screening were stored at −20° C. as 10 mM stocks in 100% DMSO until required.\nBiological activity as assessed using the luciferase reporter assay in murine H2K cells, and the results are shown in Table 1, which also lists the concentration of the test compound solution in μM.", "data": [{"smiles": "COc1ccc(NC(=O)c2nn(Cc3ccc(S(C)(=O)=O)cc3)c3ccccc23)cc1", "note": "[Compound 34, N-(4-methoxyphenyl)-1-(4-(methylsulfonyl)benzyl)-1H-indazole-3-carboxamide]", "values": [{"measurement": "activity at 10 µM", "result": "301 to 400", "unit": "%"}]}, {"smiles": "CS(=O)(=O)c1ccc(Cn2nc(C(=O)Nc3ccc4c(c3)OC(F)(F)O4)c3ccccc32)cc1", "note": "[Compound 35, N-(2,2-difluorobenzo[d][1,3]dioxol-5-yl)-1-(4-(methylsulfonyl)benzyl)-1H-indazole-3-carboxamide]", "values": [{"measurement": "activity at 10 µM", "result": "< 200", "unit": "%"}]}, {"smiles": "CON(C)S(=O)(=O)c1ccc(Cn2nc(C(=O)Nc3nccs3)c3ccccc32)cc1", "note": "[Compound 36, 1-(4-(N-methoxy-N-methylsulfamoyl)benzyl)-N-(thiazol-2-yl)-1H-indazole-3-carboxamide]", "values": [{"measurement": "activity at 10 µM", "result": "< 200", "unit": "%"}]}, {"smiles": "COc1ccc(CCNC(=O)Nc2nn(Cc3cc4c(cc3Cl)OCO4)c3ccccc23)cc1", "note": "[Compound 37, 1-(1-((6-chlorobenzo[d][1,3]dioxol-5-yl)methyl)-1H-indazol-3-yl)-3-(4-methoxyphenethyl)urea]", "values": [{"measurement": "activity at 10 µM", "result": "< 200", "unit": "%"}]}, {"smiles": "NC(=O)c1ccc(NC(=O)c2nn(Cc3ccc(C(=O)N4CCOCC4)cc3)c3ccccc23)cc1", "note": "[Compound 38, N-(4-carbamoylphenyl)-1-(4-(morpholine-4-carbonyl)benzyl)-1H-indazole-3-carboxamide]", "values": [{"measurement": "activity at 10 µM", "result": "201 to 300", "unit": "%"}]}, {"smiles": "CCN(CC)S(=O)(=O)c1ccc(Cn2nc(C(=O)Nc3ccccn3)c3ccccc32)cc1", "note": "[Compound 39, 1-(4-(N,N-diethylsulfamoyl)benzyl)-N-(pyridin-2-yl)-1H-indazole-3-carboxamide]", "values": [{"measurement": "activity at 10 µM", "result": "< 200", "unit": "%"}]}, {"smiles": "O=C(Nc1ccccc1OC(F)(F)F)Nc1nn(Cc2ccc(C(F)(F)F)cc2)c2ccccc12", "note": "[Compound 40, 1-(2-(trifluoromethoxy)phenyl)-3-(1-(4-(trifluoromethyl)benzyl)-1H-indazol-3-yl)urea]", "values": [{"measurement": "activity at 30 µM", "setting": "test compound concentration 30 μM", "result": "< 200", "unit": "%"}]}, {"smiles": "CCN(CC)S(=O)(=O)c1ccc(Cn2nc(C(=O)Nc3ccc4c(c3)C(=O)N(C)C4=O)c3ccccc32)cc1", "note": "[Compound 41, 1-(4-(N,N-diethylsulfamoyl)benzyl)-N-(2-methyl-1,3-dioxoisoindolin-5-yl)-1H-indazole-3-carboxamide]", "values": [{"measurement": "activity at 10 µM", "result": "< 200", "unit": "%"}]}, {"smiles": "CC(C)(C)c1ccc(Cn2nc(C(=O)Nc3ccc4c(c3)OCO4)c3ccccc32)cc1", "note": "[Compound 42, N-(benzo[d][1,3]dioxol-5-yl)-1-(4-tert-butylbenzyl)-1H-indazole-3-carboxamide]", "values": [{"measurement": "activity at 10 µM", "result": "> 401", "unit": "%"}]}, {"smiles": "O=C(Nc1ccc(N2CCCCC2)cc1)c1nn(CCOc2ccc(F)cc2)c2ccccc12", "note": "[Compound 43, 1-(2-(4-fluorophenoxy)ethyl)-N-(4-(piperidin-1-yl)phenyl)-1H-indazole-3-carboxamide]", "values": [{"measurement": "activity at 10 µM", "result": "< 200", "unit": "%"}]}, {"smiles": "COc1cccc(OCc2ccc(Cn3nc(NC(=O)NCc4ccccc4OC)c4ccccc43)cc2)c1", "note": "[Compound 44, 1-(2-methoxybenzyl)-3-(1-(4-((3-methoxyphenoxy)methyl)benzyl)-1H-indazol-3-yl)urea]", "values": [{"measurement": "activity at 10 µM", "result": "< 200", "unit": "%"}]}, {"smiles": "O=C(Nc1ccc2c(c1)OCO2)c1nn(CCCOc2ccccc2)c2ccccc12", "note": "[Compound 45, N-(benzo[d][1,3]dioxol-5-yl)-1-(3-phenoxypropyl)-1H-indazole-3-carboxamide]", "values": [{"measurement": "activity at 10 µM", "result": "> 401", "unit": "%"}]}, {"smiles": "O=C(Nc1ccc2c(c1)OCO2)c1nn(CCOc2ccc(F)cc2)c2ccccc12", "note": "[Compound 46, N-(benzo[d][1,3]dioxol-5-yl)-1-(2-(4-fluorophenoxy)ethyl)-1H-indazole-3-carboxamide]", "values": [{"measurement": "activity at 10 µM", "result": "< 200", "unit": "%"}]}, {"smiles": "O=C(NCc1ccccc1F)Nc1nn(Cc2cc3c(cc2Cl)OCO3)c2ccccc12", "note": "[Compound 47, 1-(1-((6-chlorobenzo[d][1,3]dioxol-5-yl)methyl)-1H-indazol-3-yl)-3-(2-fluorobenzyl)urea]", "values": [{"measurement": "activity at 10 µM", "result": "< 200", "unit": "%"}]}, {"smiles": "CC(C)(C)c1ccc(Cn2nc(C(=O)Nc3ccc4c(c3)OC(F)(F)O4)c3ccccc32)cc1", "note": "[Compound 48, 1-(4-tert-butylbenzyl)-N-(2,2-difluorobenzo[d][1,3]dioxol-5-yl)-1H-indazole-3-carboxamide]", "values": [{"measurement": "activity at 10 µM", "result": "< 200", "unit": "%"}]}, {"smiles": "CON(C)S(=O)(=O)c1ccc(Cn2nc(C(=O)Nc3ccccn3)c3ccccc32)cc1", "note": "[Compound 49, 1-(4-(N-methoxy-N-methylsulfamoyl)benzyl)-N-(pyridin-2-yl)-1H-indazole-3-carboxamide]", "values": [{"measurement": "activity at 10 µM", "result": "< 200", "unit": "%"}]}, {"smiles": "O=C(Nc1ccc2c(c1)OCO2)c1nn(Cc2ccc(-c3ccccc3)cc2)c2ccccc12", "note": "[Compound 50, N-(benzo[d][1,3]dioxol-5-yl)-1-(biphenyl-4-ylmethyl)-1H-indazole-3-carboxamide]", "values": [{"measurement": "activity at 10 µM", "result": "< 200", "unit": "%"}]}, {"smiles": "Cc1cccc(NC(=O)Nc2nn(Cc3ccc(COc4ccc5c(c4)OCO5)cc3)c3ccc(C(F)(F)F)cc23)c1", "note": "[Compound 51, 1-(1-(4-((benzo[d][1,3]dioxol-5-yloxy)methyl)benzyl)-5-(trifluoromethyl)-1H-indazol-3-yl)-3-m-tolylurea]", "values": [{"measurement": "activity at 10 µM", "result": "< 200", "unit": "%"}]}, {"smiles": "COc1cc(NC(=O)Nc2nn(Cc3cc4c(cc3Cl)OCO4)c3ccccc23)cc(OC)c1", "note": "[Compound 52, 1-(1-((6-chlorobenzo[d][1,3]dioxol-5-yl)methyl)-1H-indazol-3-yl)-3-(3,5-dimethoxyphenyl)urea]", "values": [{"measurement": "activity at 10 µM", "result": "< 200", "unit": "%"}]}, {"smiles": "O=C(Nc1ccc2c(c1)CCC2)Nc1nn(Cc2ccc(C(F)(F)F)cc2)c2ccccc12", "note": "[Compound 53, 1-(2,3-dihydro-1H-inden-5-yl)-3-(1-(4-(trifluoromethyl)benzyl)-1H-indazol-3-yl)urea]", "values": [{"measurement": "activity at 10 µM", "result": "< 200", "unit": "%"}]}, {"smiles": "COc1cccc(OCc2ccc(Cn3nc(NC(=O)Nc4ccc(OC)c(OC)c4)c4ccccc43)cc2)c1", "note": "[Compound 54, 1-(3,4-dimethoxyphenyl)-3-(1-(4-((3-methoxyphenoxy)methyl)benzyl)-1H-indazol-3-yl)urea]", "values": [{"measurement": "activity at 10 µM", "result": "< 200", "unit": "%"}]}, {"smiles": "O=C(NCc1ccco1)Nc1nn(Cc2cc3c(cc2Cl)OCO3)c2ccccc12", "note": "[Compound 55, 1-(1-((6-chlorobenzo[d][1,3]dioxol-5-yl)methyl)-1H-indazol-3-yl)-3-(furan-2-ylmethyl)urea]", "values": [{"measurement": "activity at 10 µM", "result": "< 200", "unit": "%"}]}, {"smiles": "COc1ccc(NC(=O)c2nn(CCOc3ccccc3)c3ccccc23)cc1", "note": "[Compound 56, N-(4-methoxyphenyl)-1-(2-phenoxyethyl)-1H-indazole-3-carboxamide]", "values": [{"measurement": "activity at 10 µM", "result": "< 200", "unit": "%"}]}, {"smiles": "Cc1ccc(NC(=O)Nc2nn(Cc3ccc(COc4ccc5c(c4)OCO5)cc3)c3ccc(C(F)(F)F)cc23)cc1", "note": "[Compound 57, 1-(1-(4-((benzo[d][1,3]dioxol-5-yloxy)methyl)benzyl)-5-(trifluoromethyl)-1H-indazol-3-yl)-3-p-tolylurea]", "values": [{"measurement": "activity at 10 µM", "result": "< 200", "unit": "%"}]}, {"smiles": "O=C(Nc1ccc2c(c1)OCO2)c1nn(CCOc2ccccc2)c2ccccc12", "note": "[Compound 58, N-(benzo[d][1,3]dioxol-5-yl)-1-(2-phenoxyethyl)-1H-indazole-3-carboxamide]", "values": [{"measurement": "activity at 10 µM", "result": "201 to 300", "unit": "%"}]}, {"smiles": "Cc1ccc(NC(=O)Nc2nn(Cc3ccc(C(F)(F)F)cc3)c3ccccc23)cc1", "note": "[Compound 59, 1-p-tolyl-3-(1-(4-(trifluoromethyl)benzyl)-1H-indazol-3-yl)urea]", "values": [{"measurement": "activity at 10 µM", "result": "< 200", "unit": "%"}]}, {"smiles": "CC(C)c1ccc(NC(=O)c2nn(CCOc3ccc(F)cc3)c3ccccc23)cc1", "note": "[Compound 60, 1-(2-(4-fluorophenoxy)ethyl)-N-(4-isopropylphenyl)-1H-indazole-3-carboxamide]", "values": [{"measurement": "activity at 10 µM", "result": "< 200", "unit": "%"}]}, {"smiles": "O=C(Nc1ccc(OC(F)(F)F)cc1)c1nn(Cc2ccc(C(=O)N3CCOCC3)cc2)c2ccccc12", "note": "[Compound 61, 1-(4-(morpholine-4-carbonyl)benzyl)-N-(4-(trifluoromethoxy)phenyl)-1H-indazole-3-carboxamide]", "values": [{"measurement": "activity at 10 µM", "result": "> 401", "unit": "%"}]}, {"smiles": "CC(C)c1ccc(NC(=O)c2nn(Cc3ccc(S(C)(=O)=O)cc3)c3ccccc23)cc1", "note": "[Compound 62, N-(4-isopropylphenyl)-1-(4-(methylsulfonyl)benzyl)-1H-indazole-3-carboxamide]", "values": [{"measurement": "activity at 10 µM", "result": "301 to 400", "unit": "%"}]}, {"smiles": "O=C(Nc1ccc2c(c1)OCO2)c1nn(Cc2ccc(C(=O)N3CCOCC3)cc2)c2ccccc12", "note": "[Compound 63, N-(benzo[d][1,3]dioxol-5-yl)-1-(4-(morpholine-4-carbonyl)benzyl)-1H-indazole-3-carboxamide]", "values": [{"measurement": "activity at 10 µM", "result": "> 401", "unit": "%"}]}, {"smiles": "NC(=O)c1ccc(NC(=O)c2nn(Cc3ccc(S(=O)(=O)N4CCOCC4)cc3)c3ccccc23)cc1", "note": "[Compound 64, N-(4-carbamoylphenyl)-1-(4-(morpholinosulfonyl)benzyl)-1H-indazole-3-carboxamide]", "values": [{"measurement": "activity at 10 µM", "result": "< 200", "unit": "%"}]}, {"smiles": "COc1ccc(NC(=O)c2nn(Cc3ccc(C(C)(C)C)cc3)c3ccccc23)cc1", "note": "[Compound 65, 1-(4-tert-butylbenzyl)-N-(4-methoxyphenyl)-1H-indazole-3-carboxamide]", "values": [{"measurement": "activity at 10 µM", "result": "201 to 300", "unit": "%"}]}, {"smiles": "C#CCN(C)S(=O)(=O)c1ccc(Cn2nc(C(=O)Nc3ccc(C(C)C)cc3)c3ccccc32)cc1", "note": "[Compound 66, N-(4-isopropylphenyl)-1-(4-(N-methyl-N-(prop-2-ynyl)sulfamoyl)benzyl)-1H-indazole-3-carboxamide]", "values": [{"measurement": "activity at 10 µM", "result": "< 200", "unit": "%"}]}, {"smiles": "O=C(Nc1ccccn1)c1nn(CCOc2ccc(F)cc2)c2ccccc12", "note": "[Compound 67, 1-(2-(4-fluorophenoxy)ethyl)-N-(pyridin-2-yl)-1H-indazole-3-carboxamide]", "values": [{"measurement": "activity at 10 µM", "result": "< 200", "unit": "%"}]}]}
